Binding and KD data for 3 compounds are collected here from PMC2864571 (2010).

The subject of assay [1] is pfl RNA (RNA, riboswitch) GGUAAAAUAAGAAAAUCAUGCAACUGGCGGAAAUGGAGUUCACCAUAGGGAGCAUGAUUAAUAUAAGAAUCGACCGCCUGGGUAAAUUAAUA
Briefly: RNase T1 and V1 protection assay. The conditions noted are these: PRPP unstable; 1 mM in in-line probing list.

The test system of assay [2] is SK209-52 RNA (RNA, riboswitch, extra 5' G residues added for transcription (asterisks in Figure 1b)) GGUACCUGUCACAACGGCUUCCUGGCGUGACGAGGUGACCUCAGUGGAGCAA
Briefly: in-line probing.

Assay [3] relates to SAM-Chlorobi RNA (third construct, shorter 3' end) (RNA, mRNA element) GGAUUUUCCGGCAUCCCCAUUACCUAUGGACACGGUGCCAAAAGCUCUCUUGCGGGAGUUGUCCCCGGAGCUUGCCGAAAGGUUUCC
Nature of the assay: in-line probing. The settings on record: 1 mM tested; preliminary analysis.

Assay [4] concerns SAM-Chlorobi RNA (fourth construct, shortest 3' end) (RNA, mRNA element) GGAUUUUCCGGCAUCCCCAUUACCUAUGGACACGGUGCCAAAAGCUCUCUUGCGGGAGUU
Briefly: in-line probing. The conditions noted are these: 1 mM tested; preliminary analysis.

Assay [5] concerns SAM-Chlorobi RNA (longest construct) (RNA, mRNA element) GGAUUUUCCGGCAUCCCCAUUACCUAUGGACACGGUGCCAAAAGCUCUCUUGCGGGAGUUGUCCCCGGAGCUUGCCGAAAGGUUUCCCGUGUCCCGUUUGUCCCUCCGCGACAUUCACCUUCACGAGAAAACCGCAUCGGCAAACCGCCGGACACCUGCCGUUCUUGUCGUUCGAUUAACAAAAAACCGAAAGGGAAACUA
Briefly: in-line probing. The conditions noted are these: 1 mM tested; preliminary analysis.

The test system of assay [6] is SAM-Chlorobi RNA (second construct, shorter 3' end) (RNA, mRNA element) GGAUUUUCCGGCAUCCCCAUUACCUAUGGACACGGUGCCAAAAGCUCUCUUGCGGGAGUUGUCCCCGGAGCUUGCCGAAAGGUUUCCCGUGUCCCGUUUGUCCC
Briefly: in-line probing. The settings on record: 1 mM tested; preliminary analysis.

Where two headings read alike, the source gives them in different places.

Take `O=P(O)(O)OC[C@H]1O[C@H](OP(=O)(O)OP(=O)(O)O)[C@H](O)[C@@H]1O`: in assay [1], the binding result was “no”.
For `C[S+](CC[C@H](N)C(=O)O)C[C@H]1O[C@@H](n2cnc3c(N)ncnc32)[C@H](O)[C@@H]1O` (some centres unmarked), in assay [2] (SAM samples contain some SAH from spontaneous demethylation, apparent), the KD was ~ 8.6 μM. The binding result in assay [3], in assay [4], in assay [5] and in assay [6] was “no” each time.
As for `Nc1ncnc2c1ncn2[C@@H]1O[C@H](CSCC[C@H](N)C(=O)O)[C@@H](O)[C@H]1O`, the KD in assay [2] is listed as ~ 4.3 μM. Also, the binding entry in assay [3], in assay [4], in assay [5] and in assay [6] was “no” throughout.
